Here are results for twelve compounds from US4432732A, “Method for predicting properties of a chemical compound” (priority 1982, dated 1984).

The conditions of series [1]: cited from earlier work; for taste in words: bitter or sweet taste; for sweetness, times sweeter than sucrose: taste of sucrose is 1.
The test system of series [2] is small animals. Particulars: intravenous dose; cited from earlier work.
A short description of series [3]: acute toxicity, LD50 (intravenous dose, small animals). Particulars: in vivo, LD50 (mg/kg) divided by molecular weight, multiplied by 100. The procedure:
Conventionally, the degree of toxicity of a compound has been known only after actual dose. LD50 data for small animals (intravenous dose) contained in the Merck Index (9th edition) were thoroughly taken to use as a learning set, which amounts to more than 300 compounds. The predictability of this chart was tested with 82 other compounds.
Toxicity scale used for this study. Unit of ordinary LD50 values are mg/kg, where mg is the quantity of substance dosed for 50% lethality and kg is the weight of the test animal.
To standardize this value on the millimore base, the LD50 values is divided by the molecular weight. In FIG. 1, the quantity is further multiplied by 100 to avoid unfamiliarly small digits.

“Also recorded” adds a separate entry of the source. Where a SMILES comes first, the peptide text is derived from it. [ ]: non-standard residue; d: D form. The star is where a group is joined. ξ: configuration not given here. ξS = NC(CO)C(=O)O; OiPr = CC(C)O*

In the case of `N[C@@H](CCC(=O)O)C(=O)N[C@@H](Cc1ccccc1)C(=O)O` [(VI)], in series [1], the taste in words result is on record as “bitter taste is observed”. `COC(=O)[C@H](Cc1ccccc1)NC(=O)[C@@H](N)CCC(=O)O` [(V)]: in series [1], the taste in words entry is listed as “bitter taste is observed”. Regarding `N[C@@H](CC(=O)O)C(=O)N[C@@H](Cc1ccccc1)C(=O)O` [(II)] (H-Asp-Phe-OH), the taste in words entry in series [1] is on record as “bitter taste is observed”. Take `O=C1NS(=O)(=O)c2ccccc21` [saccharine, reference compound]: the taste in words entry in series [1] is recorded as “slight bitterness”. As to `COC(=O)[C@H](Cc1ccccc1)NC(=O)[C@@H](N)CC(=O)O` [aspartame, reference compound] (H-Asp-Phe-OMe), in series [1], the taste in words entry is “strong sweetness; also recorded: lacking bitter taste” and the “sweetness, times sweeter than sucrose” value is “about 150 times”. Turning to `CC(=O)Nc1c(I)c(NC(C)=O)c(I)c(C(=O)O)c1I` [Compound I], the “observed LD50” value in series [2] is recorded as 14700 mg/kg. Also, the LD50 (as a rule, the dose at which mortality reaches 50%) in series [3] was determined as 22900 µmol/kg. `COc1cc(C(=O)OCCCN2CCCN(CCCOC(=O)c3cc(OC)c(OC)c(OC)c3)CC2)cc(OC)c1OC` [Compound II]: the “observed LD50” value in series [2] is given as 26.6 mg/kg. In series [3], this compound had an LD50 of 328 µmol/kg. Consider `OC[C@H]1O[C@@](CO)(O[C@H]2O[C@H](CO)[C@@H](O)[C@H](O)[C@H]2O)[C@@H](O)[C@@H]1O` [sucrose, reference compound], for which the taste in words result in series [1] is recorded as “lacking bitter taste”. `O=S(=O)(O)NC1CCCCC1` [cyclamic acid, reference compound]: the taste in words result in series [1] is “lacking bitter taste”. Take `N[C@@H](CC(=O)O)C(=O)N[C@@H](Cc1ccc(O)cc1)C(=O)O` [(III)] (H-Asp-Tyr-OH): the taste in words entry in series [1] is recorded as “bitter taste is observed”. As to `CC(C)OC(=O)C(CO)NC(=O)[C@@H](N)CC(=O)O` (stereo partly shown) [(VII)] (H-Asp-[ξS]-OiPr), in series [1], the taste in words entry is on record as “sweet peptides” and the “sweetness, times sweeter than sucrose” value is reported as roughly 120 times. For the compound `CNC(=O)[C@H](Cc1ccc(O)cc1)NC(=O)[C@@H](N)CC(=O)O` [(IV)] (H-Asp-Tyr-NHMe), in series [1], the taste in words result was “bitter taste is observed”.
